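All cell lines were grown in 96-well plates and treated with compound for 48 hours. GI50 marks 50% less growth. TGI is the concentration that stops growth completely.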
Experiments:
Assay in all cases: NCI-60 cell line screen, 48 h; in the data active = GI50 below about 0.43 µM; inactive = the rest
786-0 renal = system: 786-0 renal
A498 renal = system: A498 renal
A549 NSCLC = system: A549 NSCLC
ACHN renal = system: ACHN renal
BT-549 breast = system: BT-549 breast
CAKI-1 renal = system: CAKI-1 renal
COLO 205 colon = system: COLO 205 colon
DU-145 prostate = system: DU-145 prostate
EKVX NSCLC = system: EKVX NSCLC
HCC-2998 colon = system: HCC-2998 colon
HCT-116 colon = system: HCT-116 colon
HCT-15 colon = system: HCT-15 colon
HL-60(TB) leukemia = system: HL-60(TB) leukemia
HOP-62 NSCLC = system: HOP-62 NSCLC
HOP-92 NSCLC = system: HOP-92 NSCLC
HT29 colon = system: HT29 colon
IGROV1 ovarian = system: IGROV1 ovarian
KM12 colon = system: KM12 colon
LOX IMVI melanoma = system: LOX IMVI melanoma
M14 melanoma = system: M14 melanoma
MCF7 breast = system: MCF7 breast
MDA-MB-231 breast = system: MDA-MB-231 breast
MDA-MB-435 = system: MDA-MB-435
MOLT-4 leukemia = system: MOLT-4 leukemia
NCI-H226 lung = system: NCI-H226 lung
NCI-H23 lung = system: NCI-H23 lung
NCI-H460 lung = system: NCI-H460 lung
NCI/ADR-RES ovarian = system: NCI/ADR-RES ovarian
OVCAR-3 ovarian = system: OVCAR-3 ovarian
OVCAR-4 ovarian = system: OVCAR-4 ovarian
OVCAR-5 ovarian = system: OVCAR-5 ovarian
OVCAR-8 ovarian = system: OVCAR-8 ovarian
RXF 393 renal = system: RXF 393 renal
SF-268 CNS = system: SF-268 CNS
SF-295 CNS = system: SF-295 CNS
SF-539 CNS = system: SF-539 CNS
SK-MEL-2 melanoma = system: SK-MEL-2 melanoma
SK-MEL-28 melanoma = system: SK-MEL-28 melanoma
SK-MEL-5 melanoma = system: SK-MEL-5 melanoma
SK-OV-3 ovarian = system: SK-OV-3 ovarian
SN12C renal = system: SN12C renal
SNB-19 CNS = system: SNB-19 CNS
SNB-75 CNS = system: SNB-75 CNS
SW-620 colon = system: SW-620 colon
T-47D breast = system: T-47D breast
TK-10 renal = system: TK-10 renal
U251 CNS = system: U251 CNS
UACC-257 melanoma = system: UACC-257 melanoma
UO-31 renal = system: UO-31 renal
HS 578T breast = system: HS 578T breast
MALME-3M melanoma = system: MALME-3M melanoma
NCI-H522 lung = system: NCI-H522 lung
PC-3 prostate = system: PC-3 prostate
UACC-62 melanoma = system: UACC-62 melanoma

NC(=O)C(=CN1C(=O)CC(=O)NC1=S)C(N)=O
> 100 µM: TGI (786-0 renal) | TGI (A498 renal) | TGI (A549 NSCLC) | TGI (ACHN renal) | TGI (BT-549 breast) | TGI (CAKI-1 renal) | TGI (COLO 205 colon) | TGI (DU-145 prostate) | TGI (EKVX NSCLC) | TGI (HCC-2998 colon) | TGI (HCT-116 colon) | TGI (HCT-15 colon) | TGI (HL-60(TB) leukemia) | TGI (HOP-62 NSCLC) | TGI (HOP-92 NSCLC) | TGI (HT29 colon) | TGI (IGROV1 ovarian) | TGI (KM12 colon) | TGI (LOX IMVI melanoma) | TGI (M14 melanoma) | TGI (MCF7 breast) | TGI (MDA-MB-231 breast) | TGI (MDA-MB-435) | TGI (MOLT-4 leukemia) | TGI (NCI-H226 lung) | TGI (NCI-H23 lung) | TGI (NCI-H460 lung) | TGI (NCI/ADR-RES ovarian) | TGI (OVCAR-3 ovarian) | TGI (OVCAR-4 ovarian) | TGI (OVCAR-5 ovarian) | TGI (OVCAR-8 ovarian) | TGI (RXF 393 renal) | TGI (SF-268 CNS) | TGI (SF-295 CNS) | TGI (SF-539 CNS) | TGI (SK-MEL-2 melanoma) | TGI (SK-MEL-28 melanoma) | TGI (SK-MEL-5 melanoma) | TGI (SK-OV-3 ovarian) | TGI (SN12C renal) | TGI (SNB-19 CNS) | TGI (SNB-75 CNS) | TGI (SW-620 colon) | TGI (T-47D breast) | TGI (TK-10 renal) | TGI (U251 CNS) | TGI (UACC-257 melanoma) | TGI (UO-31 renal)

COc1cc2nc(-c3ccc(-n4cncc4-c4ccc(N)cc4)cc3)sc2c(OC)c1OC
5.85 µM: TGI (CAKI-1 renal)
75.9 µM: TGI (EKVX NSCLC)
6.87 µM: TGI (UO-31 renal)
57.8 µM: TGI (OVCAR-8 ovarian)
17 µM: TGI (U251 CNS)
inactive: GI50 (786-0 renal) 6.26 µM | GI50 (A498 renal) 2.13 µM | GI50 (A549 NSCLC) 3.14 µM | GI50 (ACHN renal) 8.56 µM | GI50 (CAKI-1 renal) 1.41 µM | GI50 (DU-145 prostate) 7.25 µM | GI50 (EKVX NSCLC) 2.49 µM | GI50 (HCT-116 colon) 3.81 µM | GI50 (HOP-92 NSCLC) 0.446 µM | GI50 (HS 578T breast) 5.36 µM | GI50 (HT29 colon) 2.79 µM | GI50 (IGROV1 ovarian) 2.63 µM | GI50 (LOX IMVI melanoma) 3.65 µM | GI50 (M14 melanoma) 2.1 µM | GI50 (MALME-3M melanoma) 0.71 µM | GI50 (MCF7 breast) 3.02 µM | GI50 (MDA-MB-231 breast) 3.66 µM | GI50 (NCI-H226 lung) 4.73 µM | GI50 (NCI-H23 lung) 3.87 µM | GI50 (NCI-H460 lung) 5.13 µM | GI50 (NCI-H522 lung) 2.74 µM | GI50 (NCI/ADR-RES ovarian) 1.61 µM | GI50 (OVCAR-3 ovarian) 2.73 µM | GI50 (OVCAR-4 ovarian) 3.6 µM | GI50 (OVCAR-5 ovarian) 34.3 µM | GI50 (OVCAR-8 ovarian) 4.23 µM | GI50 (PC-3 prostate) 3.02 µM | GI50 (RXF 393 renal) 4.41 µM | GI50 (SF-268 CNS) 12.3 µM | GI50 (SF-295 CNS) 1.53 µM | GI50 (SF-539 CNS) 7.14 µM | GI50 (SK-MEL-28 melanoma) > 100 µM | GI50 (SK-MEL-5 melanoma) 2.74 µM | GI50 (SK-OV-3 ovarian) 11.7 µM | GI50 (SN12C renal) 8.95 µM | GI50 (SNB-19 CNS) 12.3 µM | GI50 (SNB-75 CNS) 5.94 µM | GI50 (T-47D breast) 1.59 µM | GI50 (TK-10 renal) 4.93 µM | GI50 (U251 CNS) 3.84 µM | GI50 (UACC-257 melanoma) 6.4 µM | GI50 (UACC-62 melanoma) 5.45 µM | GI50 (UO-31 renal) 1.55 µM
21.1 µM: TGI (RXF 393 renal)
32.5 µM: TGI (A549 NSCLC)
6.44 µM: TGI (MALME-3M melanoma)
20.2 µM: TGI (IGROV1 ovarian)
6.71 µM: TGI (T-47D breast)
51.1 µM: TGI (SNB-19 CNS)
23.5 µM: TGI (SNB-75 CNS)
31.3 µM: TGI (SK-OV-3 ovarian)
6.43 µM: TGI (NCI/ADR-RES ovarian)
49.7 µM: TGI (HS 578T breast)
> 100 µM: TGI (786-0 renal) | TGI (A498 renal) | TGI (ACHN renal) | TGI (DU-145 prostate) | TGI (HCT-116 colon) | TGI (HT29 colon) | TGI (LOX IMVI melanoma) | TGI (M14 melanoma) | TGI (MCF7 breast) | TGI (MDA-MB-231 breast) | TGI (NCI-H460 lung) | TGI (OVCAR-5 ovarian) | TGI (SF-539 CNS) | TGI (SK-MEL-28 melanoma) | TGI (SK-MEL-5 melanoma) | TGI (SN12C renal) | TGI (TK-10 renal) | TGI (UACC-257 melanoma) | TGI (UACC-62 melanoma)
40.6 µM: TGI (NCI-H226 lung)
23.7 µM: TGI (NCI-H23 lung)
4.08 µM: TGI (HOP-92 NSCLC)
62.1 µM: TGI (SF-268 CNS)
21.6 µM: TGI (NCI-H522 lung)
32.1 µM: TGI (OVCAR-4 ovarian)
7.14 µM: TGI (SF-295 CNS)
49.2 µM: TGI (PC-3 prostate)
15.1 µM: TGI (OVCAR-3 ovarian)

From PubChem BioAssay (NCI)
